{"source": "ChEMBL document CHEMBL1201862", "about": "“PubChem BioAssay data set” (2004)", "assay_in_all_cases": "NCI anticancer screen, dose series, 48 h", "key": {"M14": {"tested_on": "M14"}, "DMS-273": {"tested_on": "DMS-273"}, "CCRF-CEM": {"tested_on": "CCRF-CEM"}, "HCT-15": {"tested_on": "HCT-15"}, "SK-MEL-2": {"tested_on": "SK-MEL-2"}, "DU-145": {"tested_on": "DU-145"}, "SNB-75": {"tested_on": "SNB-75"}, "786-0": {"tested_on": "786-0"}, "RXF 393": {"tested_on": "RXF 393"}, "A549": {"tested_on": "A549"}, "ACHN": {"tested_on": "ACHN"}, "HCC 2998": {"tested_on": "HCC 2998"}, "SF-268": {"tested_on": "SF-268"}, "IGROV-1": {"tested_on": "IGROV-1"}, "NCI/ADR-RES": {"tested_on": "NCI/ADR-RES"}, "NCI-H522": {"tested_on": "NCI-H522"}, "K562": {"tested_on": "K562"}, "OVCAR-8": {"tested_on": "OVCAR-8"}, "PC-3": {"tested_on": "PC-3"}, "BT-549": {"tested_on": "BT-549"}, "SNB-78": {"tested_on": "SNB-78"}, "HCT-116": {"tested_on": "HCT-116"}, "Hs-578T": {"tested_on": "Hs-578T"}, "MDA-N": {"tested_on": "MDA-N"}, "RXF 631": {"tested_on": "RXF 631"}, "NCI-H23": {"tested_on": "NCI-H23"}, "RPMI-8226": {"tested_on": "RPMI-8226"}, "A498": {"tested_on": "A498"}, "NCI-H226": {"tested_on": "NCI-H226"}, "HL-60": {"tested_on": "HL-60"}, "KM-20L2": {"tested_on": "KM-20L2"}, "LOX IMVI": {"tested_on": "LOX IMVI"}, "UACC-62": {"tested_on": "UACC-62"}, "HOP-18": {"tested_on": "HOP-18"}, "SF-295": {"tested_on": "SF-295"}, "UO-31": {"tested_on": "UO-31"}, "DMS-114": {"tested_on": "DMS-114"}, "HOP-62": {"tested_on": "HOP-62"}, "DLD-1": {"tested_on": "DLD-1"}, "M19-MEL": {"tested_on": "M19-MEL"}, "NCI-H460": {"tested_on": "NCI-H460"}, "SNB-19": {"tested_on": "SNB-19"}, "MDA-MB-435": {"tested_on": "MDA-MB-435"}, "SF-539": {"tested_on": "SF-539"}, "COLO 205": {"tested_on": "COLO 205"}, "OVCAR-3": {"tested_on": "OVCAR-3"}, "MOLT-4": {"tested_on": "MOLT-4"}, "UACC-257": {"tested_on": "UACC-257"}, "LXFL 529": {"tested_on": "LXFL 529"}, "HT-29": {"tested_on": "HT-29"}, "OVCAR-4": {"tested_on": "OVCAR-4"}, "SK-MEL-28": {"tested_on": "SK-MEL-28"}, "KM12": {"tested_on": "KM12"}, "XF498": {"tested_on": "XF498"}, "Malme-3M": {"tested_on": "Malme-3M"}, "EKVX": {"tested_on": "EKVX"}, "TK-10": {"tested_on": "TK-10"}, "OVCAR-5": {"tested_on": "OVCAR-5"}, "SK-MEL-5": {"tested_on": "SK-MEL-5"}, "SW-620": {"tested_on": "SW-620"}, "MCF7": {"tested_on": "MCF7"}, "SK-OV-3": {"tested_on": "SK-OV-3"}, "MDA-MB-231": {"tested_on": "MDA-MB-231"}, "CAKI-1": {"tested_on": "CAKI-1"}, "U-251": {"tested_on": "U-251"}, "HOP-92": {"tested_on": "HOP-92"}, "SR": {"tested_on": "SR"}, "SN12C": {"tested_on": "SN12C"}}, "note": "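Tested at 5 concentrations; 48 h exposure; 96-well plates; endpoints linearly interpolated, else capped at highest concentration. GI50 = concentration required for 50% inhibition of growth.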 The source made the active and inactive calls. Cut-off read from the data, not from the text of the source: active = GI50 up to about 1.1 µM and inactive = higher.", "data": [{"smiles": "CC[C@@]1(O)C(=O)OCc2c1cc1n(c2=O)Cc2cc3c(N)cccc3nc2-1", "note": "[9-AMINOCAMPTOTHECIN]", "values": [{"measurement": "GI50", "setting": "M14", "value": "11.3 nM (active)"}, {"measurement": "GI50", "setting": "DMS-273", "value": "< 10 nM (active)"}, {"measurement": "GI50", "setting": "CCRF-CEM", "value": "< 36.9 nM (active)"}, {"measurement": "GI50", "setting": "HCT-15", "value": 197, "unit": "nM"}, {"measurement": "GI50", "setting": "SK-MEL-2", "value": "233 nM (active)"}, {"measurement": "GI50", "setting": "DU-145", "value": "< 10 nM (active)"}, {"measurement": "GI50", "setting": "SNB-75", "value": "< 11.5 nM (active)"}, {"measurement": "GI50", "setting": "786-0", "value": "< 10 nM (active)"}, {"measurement": "GI50", "setting": "RXF 393", "value": "40.8 nM (active)"}, {"measurement": "GI50", "setting": "A549", "value": "18.8 nM (active)"}, {"measurement": "GI50", "setting": "ACHN", "value": "< 10 nM (active)"}, {"measurement": "GI50", "setting": "HCC 2998", "value": "111 nM (active)"}, {"measurement": "GI50", "setting": "SF-268", "value": "< 10 nM (active)"}, {"measurement": "GI50", "setting": "IGROV-1", "value": "246 nM (active)"}, {"measurement": "GI50", "setting": "NCI/ADR-RES", "value": "12.8 nM (active)"}, {"measurement": "GI50", "setting": "NCI-H522", "value": "18.1 nM (active)"}, {"measurement": "GI50", "setting": "K562", "value": "112 nM (active)"}, {"measurement": "GI50", "setting": "OVCAR-8", "value": "14.8 nM (active)"}, {"measurement": "GI50", "setting": "PC-3", "value": "72.8 nM (active)"}, {"measurement": "GI50", "setting": "BT-549", "value": "68.4 nM (active)"}, {"measurement": "GI50", "setting": "SNB-78", "value": "574 nM (active)"}, {"measurement": "GI50", "setting": "HCT-116", "value": "27.2 nM (active)"}, {"measurement": "GI50", "setting": "Hs-578T", "value": "4220 nM (inactive)"}, {"measurement": "GI50", "setting": "MDA-N", "value": "229 nM (active)"}, {"measurement": "GI50", "setting": "RXF 631", "value": "37.5 nM (active)"}, {"measurement": "GI50", "setting": "NCI-H23", "value": "< 10 nM (active)"}, {"measurement": "GI50", "setting": "RPMI-8226", "value": "76.4 nM (active)"}, {"measurement": "GI50", "setting": "A498", "value": "79.4 nM (active)"}, {"measurement": "GI50", "setting": "NCI-H226", "value": "10.2 nM (active)"}, {"measurement": "GI50", "setting": "HL-60", "value": "< 10 nM (active)"}, {"measurement": "GI50", "setting": "KM-20L2", "value": "64.3 nM (active)"}, {"measurement": "GI50", "setting": "LOX IMVI", "value": "< 10 nM (active)"}, {"measurement": "GI50", "setting": "UACC-62", "value": "< 10.2 nM (active)"}, {"measurement": "GI50", "setting": "HOP-18", "value": "27.7 nM (active)"}, {"measurement": "GI50", "setting": "SF-295", "value": "< 10 nM (active)"}, {"measurement": "GI50", "setting": "UO-31", "value": "17.5 nM (active)"}, {"measurement": "GI50", "setting": "DMS-114", "value": "< 10 nM (active)"}, {"measurement": "GI50", "setting": "HOP-62", "value": "< 10 nM (active)"}, {"measurement": "GI50", "setting": "DLD-1", "value": "566 nM (active)"}, {"measurement": "GI50", "setting": "M19-MEL", "value": "19.8 nM (active)"}, {"measurement": "GI50", "setting": "NCI-H460", "value": "< 10 nM (active)"}, {"measurement": "GI50", "setting": "SNB-19", "value": "< 10 nM (active)"}, {"measurement": "GI50", "setting": "MDA-MB-435", "value": "118 nM (active)"}, {"measurement": "GI50", "setting": "SF-539", "value": "< 10 nM (active)"}, {"measurement": "GI50", "setting": "COLO 205", "value": "157 nM (active)"}, {"measurement": "GI50", "setting": "OVCAR-3", "value": "207 nM (active)"}, {"measurement": "GI50", "setting": "MOLT-4", "value": "< 10 nM (active)"}, {"measurement": "GI50", "setting": "UACC-257", "value": "57.1 nM (active)"}, {"measurement": "GI50", "setting": "LXFL 529", "value": "244 nM (active)"}, {"measurement": "GI50", "setting": "HT-29", "value": "63.2 nM (active)"}, {"measurement": "GI50", "setting": "OVCAR-4", "value": "238 nM (active)"}, {"measurement": "GI50", "setting": "SK-MEL-28", "value": "177 nM (active)"}, {"measurement": "GI50", "setting": "KM12", "value": "230 nM (active)"}, {"measurement": "GI50", "setting": "XF498", "value": "143 nM (active)"}, {"measurement": "GI50", "setting": "Malme-3M", "value": "78.5 nM (active)"}, {"measurement": "GI50", "setting": "EKVX", "value": "340 nM (active)"}, {"measurement": "GI50", "setting": "TK-10", "value": "1630 nM (inactive)"}, {"measurement": "GI50", "setting": "OVCAR-5", "value": "128 nM (active)"}, {"measurement": "GI50", "setting": "SK-MEL-5", "value": "11.8 nM (active)"}, {"measurement": "GI50", "setting": "SW-620", "value": "32.1 nM (active)"}, {"measurement": "GI50", "setting": "MCF7", "value": "< 10 nM (active)"}, {"measurement": "GI50", "setting": "SK-OV-3", "value": "15.7 nM (active)"}, {"measurement": "GI50", "setting": "MDA-MB-231", "value": "272 nM (active)"}, {"measurement": "GI50", "setting": "CAKI-1", "value": "< 10 nM (active)"}, {"measurement": "GI50", "setting": "U-251", "value": "10.8 nM (active)"}, {"measurement": "GI50", "setting": "HOP-92", "value": "35.6 nM (active)"}, {"measurement": "GI50", "setting": "SR", "value": "< 215 nM (active)"}, {"measurement": "GI50", "setting": "SN12C", "value": "< 10 nM (active)"}]}]}
